Experiments:
Format in all cases: cell-based
[1] = test system: Daudi lymphoma cancer cells; test: Cancer cell survival (CellTiter-Glo), Daudi; details: 72 h
Procedure, shortened: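 Daudi cells (4×10^3/well) were exposed for 72 h at 37 °C to nine concentrations of compound, added as 10× solutions spanning 1 μM–10 mM (fatty acids) or 100 nM–1 mM (others). CellTiter-Glo luminescence gave % survival versus untreated, medium-blank corrected; IC50 derived.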

A549 lung cancer cells = test: Cancer cell survival (CellTiter-Glo), A549; details: 72 h
Procedure, shortened: (§1)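 Cells seeded at 4×10^3 cells/well, incubated overnight, then treated in triplicate at nine concentrations for 72 h at 37 C, 5% CO2. Viability by CellTiter-Glo luminescence, survival % normalized to untreated and medium controls; IC50 derived.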

MCF7 breast cancer cells = test: Cancer cell survival (CellTiter-Glo), MCF7; details: 72 h
Procedure, shortened: as §1

[2] = test system: HCT 116 colorectal cancer cells; test: Cancer cell survival (CellTiter-Glo), HCT 116; details: HCT 116 cells, 72 h
Procedure, shortened: as §1

T24 bladder cancer cells = test: Cancer cell survival (CellTiter-Glo), T24; details: 72 h
Procedure, shortened: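 T24 cells seeded at 4×10^3 cells/well overnight, then exposed 72 h at 37 C, 5% CO2 to nine concentrations in triplicate. Survival measured by CellTiter-Glo luminescence relative to untreated and medium controls; IC50 derived.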

A-431 skin cancer cells = test: Cancer cell survival (CellTiter-Glo), A-431; set-up: Cell survival at given concentration: unit not given here; details: A-431 cells, 72 h
Procedure, shortened: as §1

AGS stomach cancer cells = test: Cancer cell survival (CellTiter-Glo), AGS; set-up: Cell survival at given concentration: unit not given here
Procedure, shortened: as §1

[3] = test system: PC-3 prostate cancer cells; test: Cancer cell survival (CellTiter-Glo), PC-3; details: PC-3 cells, 72 h
Procedure, shortened: as §1

O=c1oc2cc(O)ccc2c2cc(O)c(O)cc12 [urolithin C]
Cell survival at given concentration ([1]; 101 nM): 0.99
Cell survival at given concentration ([1]; 318 nM): 0.99
Cell survival at given concentration ([1]; 1 μM): 1.00
Cell survival at given concentration ([1]; 3 μM): 1.00
Cell survival at given concentration ([1]; 10 μM): 0.89
Cell survival at given concentration ([1]; 32 μM): 0.36
Cell survival at given concentration ([1]; 100 μM): 0.18
Cell survival at given concentration ([1]; 316 μM): 0.16
Cell survival at given concentration ([1]; 1000 μM): 0.07
IC50 ([1]; Table 4.1): 24.1 µM
Cell survival at given concentration (A549 lung cancer cells; 101 nM): 0.99
Cell survival at given concentration (A549 lung cancer cells; 318 nM): 0.99
Cell survival at given concentration (A549 lung cancer cells; 1 μM): 1.02
Cell survival at given concentration (A549 lung cancer cells; 3 μM): 1.04
Cell survival at given concentration (A549 lung cancer cells; 10 μM): 1.04
Cell survival at given concentration (A549 lung cancer cells; 32 μM): 1.02
Cell survival at given concentration (A549 lung cancer cells; 100 μM): 0.36
Cell survival at given concentration (A549 lung cancer cells; 316 μM): 0.16
Cell survival at given concentration (A549 lung cancer cells; 1000 μM): 0.12
IC50 (A549 lung cancer cells; Table 7.1): 93.5 µM
Cell survival at given concentration (MCF7 breast cancer cells; 101 nM): 0.97
Cell survival at given concentration (MCF7 breast cancer cells; 318 nM): 0.99
Cell survival at given concentration (MCF7 breast cancer cells; 1 μM): 0.97
Cell survival at given concentration (MCF7 breast cancer cells; 3 μM): 1.02
Cell survival at given concentration (MCF7 breast cancer cells; 10 μM): 1.07
Cell survival at given concentration (MCF7 breast cancer cells; 32 μM): 0.76
Cell survival at given concentration (MCF7 breast cancer cells; 100 μM): 0.22
Cell survival at given concentration (MCF7 breast cancer cells; 316 μM): 0.21
Cell survival at given concentration (MCF7 breast cancer cells; 1000 μM): 0.20
IC50 (MCF7 breast cancer cells; Table 5.1): 34.7 µM
Cell survival at given concentration ([2]; 101 nM): 1.00
Cell survival at given concentration ([2]; 318 nM): 0.99
Cell survival at given concentration ([2]; 1 μM): 1.00
Cell survival at given concentration ([2]; 3 μM): 0.99
Cell survival at given concentration ([2]; 10 μM): 0.94
Cell survival at given concentration ([2]; 32 μM): 0.34
Cell survival at given concentration ([2]; 100 μM): 0.02
Cell survival at given concentration ([2]; 316 μM): 0.01
Cell survival at given concentration ([2]; 1000 μM): 0.01
IC50 ([2]; Table 6.1): 25.5 µM
Cell survival at given concentration (T24 bladder cancer cells; 101 nM): 1.00
Cell survival at given concentration (T24 bladder cancer cells; 318 nM): 0.94
Cell survival at given concentration (T24 bladder cancer cells; 1 μM): 0.96
Cell survival at given concentration (T24 bladder cancer cells; 3 μM): 0.96
Cell survival at given concentration (T24 bladder cancer cells; 10 μM): 0.93
Cell survival at given concentration (T24 bladder cancer cells; 32 μM): 0.37
Cell survival at given concentration (T24 bladder cancer cells; 100 μM): 0.12
Cell survival at given concentration (T24 bladder cancer cells; 316 μM): 0.08
Cell survival at given concentration (T24 bladder cancer cells; 1000 μM): 0.07
IC50 (T24 bladder cancer cells; Table 3.1, read-out: 1050): 26.1 µM
Cell survival at given concentration (A-431 skin cancer cells; 101 nM): 1.02
Cell survival at given concentration (A-431 skin cancer cells; 318 nM): 1.02
Cell survival at given concentration (A-431 skin cancer cells; 1 μM): 1.02
Cell survival at given concentration (A-431 skin cancer cells; 3 μM): 1.03
Cell survival at given concentration (A-431 skin cancer cells; 10 μM): 1.02
Cell survival at given concentration (A-431 skin cancer cells; 32 μM): 0.95
Cell survival at given concentration (A-431 skin cancer cells; 100 μM): 0.34
Cell survival at given concentration (A-431 skin cancer cells; 316 μM): 0.20
Cell survival at given concentration (A-431 skin cancer cells; 1000 μM): 0.06
IC50 (A-431 skin cancer cells; Table 9.1): 76.7 µM
Cell survival at given concentration (AGS stomach cancer cells; 101 nM): 0.98
Cell survival at given concentration (AGS stomach cancer cells; 318 nM): 0.99
Cell survival at given concentration (AGS stomach cancer cells; 1 μM, Table 10.1): 0.98
Cell survival at given concentration (AGS stomach cancer cells; 3 μM, Table 10.1): 0.99
Cell survival at given concentration (AGS stomach cancer cells; 10 μM, Table 10.1): 1.02
Cell survival at given concentration (AGS stomach cancer cells; 32 μM, Table 10.1): 0.86
Cell survival at given concentration (AGS stomach cancer cells; 100 μM, Table 10.1): 0.15
Cell survival at given concentration (AGS stomach cancer cells; 316 μM): 0.04
Cell survival at given concentration (AGS stomach cancer cells; 1000 μM): 0.02
IC50 (AGS stomach cancer cells; Table 10.1): 56 µM
Cell survival at given concentration ([3]; 101 nM): 1.03
Cell survival at given concentration ([3]; 318 nM): 1.00
Cell survival at given concentration ([3]; 1 μM): 1.04
Cell survival at given concentration ([3]; 3 μM): 1.01
Cell survival at given concentration ([3]; 10 μM): 1.07
Cell survival at given concentration ([3]; 32 μM): 0.93
Cell survival at given concentration ([3]; 100 μM): 0.08
Cell survival at given concentration ([3]; 316 μM): 0.04
Cell survival at given concentration ([3]; 1000 μM): 0.03
IC50 ([3]; Table 8.1): 52.6 µM

— US20210085640A1, “ACYLATED CATECHIN POLYPHENOLS AND METHODS OF THEIR USE FOR THE TREATMENT OF CANCER” (Flagship Pioneering Innovations V, Inc., priority 2018, published 2021)
